From patent publication US7166581B1, “Treatment of chemotherapeutic agent and antiviral agent toxicity with acylated pyrimidine nucleosides” (Wellstat Therapeutics Corporation, priority 1987, dated 2007)

What was measured:
[1] = test system: hematopoietic system (5-FU toxicity); test: TAU dose-response on hematopoietic recovery after 5-FU (Example 2); assay type: in vivo, female Balb/C mice; set-up: Marrow: unit not given here; settings: for HCT (11d): eleven days after 5-FU
Procedure: Seventy female Balb/C mice weighing approximately twenty grams were each given an i.p. injection of 5-FU (150 mg/kg) at 1:00 p.m. on the initial day of the study. These animals were then divided into five different treatment groups: control (water), and oral TAU at doses of 100, 250, 500, and 1,000 mg/kg/treatment. The test compounds were then given at 3:00, 5:00, 7:30, and 10:00 p.m. on the day of 5-FU administration; at 9:00 a.m., 11:00 a.m., and 1:00, 3:00, 6:00, and 10:00 p.m. the following day; and a final administration at 11:00 a.m. two days following the single 5-FU injection. Each treatment was given orally in a volume of 0.2 ml water (by gavage), except the highest dose of TAU which was administered in 0.4 ml of water.
On days seven and eleven following 5-FU administration, blood (0.2–0.3 ml) was collected from seven mice in each group by retro-orbital bleeding into EDTA for subsequent differential blood cell counting. Mice were sacrificed by cervical dislocation; their right femurs removed and the contents expelled for cell counting; and their spleens removed and weighed.

[2] = test system: hematopoietic system (AZT toxicity); test: Oral TAU vs hematopoietic damage by AZT in drinking water (Example 8); assay type: in vivo, Balb/C female mice
Procedure: Forty-two Balb/C female mice, each weighing approximately 19 grams, were divided into three different groups of 14 animals each. The three groups were: basal (no AZT, no treatment), control (AZT, water), and TAU (AZT, TAU at 460 mg/kg/treatment). AZT was administered ad libitum in the drinking water at a concentration of 1.5 mg/ml throughout the course of the experiment. The volume of AZT solution consumed in all treatment groups was similar and averaged 2.25 ml per day per mouse, resulting in a daily AZT dose of about 170 mg/kg per day. Water and TAU were administered in a volume of 0.2 mL three times per day for the first 24 days of the study, and twice each day thereafter.
All of the animals were weighed on the day the experiment began, once each week, and immediately prior to sacrifice. After weighing the mice on days 24 and 35, blood (0.2–0.3 ml) was collected from seven mice in each group by retro-orbital bleeding into EDTA for subsequent differential blood cell counting, including reticulocytes. Mice were then sacrificed by cervical dislocation; their right femurs removed and the contents expelled for cell counting; and their spleens removed and weighed.

[3] = Plasma uridine after oral uridine or TAU, with or without dipyridamole (Example 12); assay type: in vivo, female Balb/C mice
Procedure: Female Balb/C mice with a body weight of 20 grams were divided into four groups of 8 animals each: [table] Dipyridamole was administered by intraperitoneal injection 30 minutes prior to uridine or TAU Uridine was administered orally by gavage as an aqueous solution in a volume of 0.4 ml. TAU was administered by gavage in an emulsion vehicle (1:1 corn oil/water with 2.5% Tween 80). Two mice from each group were bled from the suborbital plexus at each time point: 0 (Basal uridine levels before TAU or uridine administration), 0.5, 1, 2, and 4 hours after administration of TAU or uridine Plasma samples (0.1 ml) were deproteinized by addition of 0.2 ml methanol followed by centrifugation. Samples were lyophilized and then reconstituted with HPLC buffer (100 mM ammonium acetate, pH 6.5, for subsequent assay of uridine by reverse phase HPLC with UV absorbance detection (254 nm). Data points are the mean of two samples for each time point.

in vivo = test: in vivo; set-up: species or system mice; settings: mouse, ip, 300 mg/kg
Procedure: Plasma uridine levels were determined in mice at various times (15 minutes, 30 minutes, 1 hour, and 2 hours) after administration of the acyl derivatives of uridine utilized in Example 3 for attenuation of toxicity caused by 5-FU. Groups of mice (n=3 per compound per time point) received intraperitoneal injections of uridine (300 mg/kg), triacetyluridine (TAU; 455 mg/kg/treatment), benzoyluridine (BU; 428 mg/kg/treatment), ethoxycarbonyluridine (ECU; 389 mg/kg/treatment), octanoyluridine (OU; 455 mg/kg/treatment), and valeryluridine (VU; 403 mg/kg/treatment). The doses of the acyl derivatives of uridine are the molar equivalent of 300 mg/kg uridine. At the appropriate time points, blood samples (200 μl) were taken from mice via the retro-orbital sinus and immediately centrifuged. 75 μl of the resulting plasma was deproteinized with 2 volumes of methanol followed by centrifugation. The supernatant was lyophilized and reconstituted with 50 mM potassium phosphate buffer, pH 6.0, and analyzed for uridine content by HPLC on a reverse phase (C18) column. Uridine was separated from other plasma components in 50 mM potassium phosphate buffer, pH 6.0, with a methanol gradient (2% to 35% over 15 minutes). Uridine was detected and quantified by UV absorbance at 260 nm.

[4] = seven days after 5-FU, oral TAU 100 mg/kg/treatment
[5] = seven days after 5-FU, oral TAU 250 mg/kg/treatment
[6] = seven days after 5-FU, oral TAU 500 mg/kg/treatment
[7] = seven days after 5-FU, oral TAU 1000 mg/kg/treatment
[8] = day 24, AZT in drinking water + oral TAU 460 mg/kg/treatment
[9] = day 35, AZT in drinking water + oral TAU 460 mg/kg/treatment

Structure (SMILES): CC(=O)OC[C@H]1O[C@@H](n2ccc(=O)[nH]c2=O)[C@H](OC(C)=O)[C@@H]1OC(C)=O [TAU, triacetyluridine]
- Total neutrophil counts vs control ([1]; day eleven after 5-FU, TAU 250, 500, and 1,000 groups): significantly greater than control values
- Spleen weight ([1]; day eleven after 5-FU, TAU 250 group): 104.2 ± 3.5 mg
- Red blood cell counts ([1]; day eleven after 5-FU, TAU 500 group): 8.72±0.18 ×10^6 per microliter
- Red blood cell counts ([1]; day eleven after 5-FU, TAU 1000 group): 8.63±0.16 ×10^6 per microliter
- Total neutrophil counts, fold of controls ([1]; day seven after 5-FU, TAU 1,000 group): approximately three-fold
- HCT (11d) ([1]; T100): 36.80
- HCT (11d) ([1]; T250): 37.47 ± .83
- HCT (11d) ([1]; T500): 41.16 ± .88
- HCT (11d) ([1]; T1000): 41.55 ± .77
- Marrow ([1]; seven days after 5-FU 150 mg/kg i.p., oral TAU 100 mg/kg/treatment): 1.77 ± .18
- HCT (7d) ([1]; seven days after 5-FU, T100): 37.77
- HCT (7d) ([1]; seven days after 5-FU, T250): 40.04 ± .38
- HCT (7d) ([1]; seven days after 5-FU, T500): 39.50 ± .61
- HCT (7d) ([1]; seven days after 5-FU, T1000): 40.84 ± .68
- Lym [1, 4]: 2.46 ± .04 K/μl
- Neut [1, 4]: .014 ± .008 K/μl
- PLT [1, 4]: 440 ± 46 K/μl
- RBC [1, 4]: 8.20 ± .07 M/μl
- WBC [1, 4]: 2.47 ± .04 K/μl
- Lym [1, 5]: 2.71 ± .20 K/μl
- Marrow [1, 5]: 2.91 ± .48
- Neut [1, 5]: .027 ± .012 K/μl
- PLT [1, 5]: 601 ± 46 K/μl
- RBC [1, 5]: 8.51 ± .06 M/μl
- WBC [1, 5]: 2.76 ± .20 K/μl
- Lym [1, 6]: 3.99 ± .15 K/μl
- Marrow [1, 6]: 3.93 ± .39
- Neut [1, 6]: .037 ± .020 K/μl
- PLT [1, 6]: 712 ± 42 K/μl
- RBC [1, 6]: 8.43 ± .16 M/μl
- WBC [1, 6]: 4.06 ± .14 K/μl
- Lym [1, 7]: 3.44 ± .23 K/μl
- Marrow [1, 7]: 4.42 ± .34
- Neut [1, 7]: .071 ± .027 K/μl
- PLT [1, 7]: 715 ± 35 K/μl
- RBC [1, 7]: 8.65 ± .15 M/μl
- WBC [1, 7]: 3.57 ± .25 K/μl
- Body weights ([2]; day 7, AZT […] in drinking water + oral TAU 460 mg/kg/treatment): 19.51±0.38 grams
- RBC counts [2, 8]: 9.01±0.09
- Total neutrophil counts [2, 8]: 0.91±0.06
- HCT [2, 9]: 41.26 ± .62 percentage
- HGB [2, 9]: 15.14 ± .12 gm/dl
- MCH (mean cell hematocrit) [2, 9]: 18.49 ± .28 picograms
- MCV [2, 9]: 50.41 ± .48 fL
- PLT [2, 9]: 809 ± 06 K/μl
- RBC [2, 9]: 8.20 ± .20 M/μl
- reticulocyte levels [2, 9]: 0.371 ×10^6 per microliter

Structure (SMILES): O=c1ccn([C@@H]2O[C@H](CO)[C@@H](O)[C@H]2O)c(=O)[nH]1 [Urd, uridine]
- concentration at 0 h ([3]; female, Balb/C, mouse, plasma, oral, 1000 mg/kg, 0 hr (basal, before TAU or uridine), DPM 25 mg/kg i.p. 30 min before where given, read-out: Plasma uridine levels): 2 µM
- concentration at 0.5 h ([3]; female, Balb/C, mouse, plasma, oral, 0.5 hr after uridine 1000 mg/kg p.o. or equimolar TAU 1500 mg/kg p.o., ± DPM 25 mg/kg i.p., read-out: Plasma uridine levels): 4 µM
- concentration at 1 h ([3]; female, Balb/C, mouse, plasma, oral, 1 hr after uridine 1000 mg/kg p.o. or equimolar TAU 1500 mg/kg p.o., ± DPM 25 mg/kg i.p., read-out: Plasma uridine levels): 6 µM
- concentration at 2 h ([3]; female, Balb/C, mouse, plasma, oral, 2 hr after uridine 1000 mg/kg p.o. or equimolar TAU 1500 mg/kg p.o., ± DPM 25 mg/kg i.p., read-out: Plasma uridine levels): 4 µM
- concentration at 4 h ([3]; female, Balb/C, mouse, plasma, oral, 4 hr after uridine 1000 mg/kg p.o. or equimolar TAU 1500 mg/kg p.o., ± DPM 25 mg/kg i.p., read-out: Plasma uridine levels): 2 µM
- peak plasma uridine levels ([3]; uridine 1000 mg/kg p.o. or equimolar TAU 1500 mg/kg p.o., ± DPM 25 mg/kg i.p.): 6 µM
- concentration at 15 min (in vivo): 911 µM
- concentration at 30 min (in vivo): 415 µM
- concentration at 1 h (in vivo): 185 µM
- concentration at 2 h (in vivo): 5.3 µM
